Measured values: US20230365592A1 (Agios Pharmaceuticals, Inc., priority 2022, published 2023)

Molecular target: T1, human PAH with the R408W mutation (Homo sapiens, UniProt P00439, R408W)
T1 construct: expressed in transfected cells
T1 sequence (P00439 1-452 R408W): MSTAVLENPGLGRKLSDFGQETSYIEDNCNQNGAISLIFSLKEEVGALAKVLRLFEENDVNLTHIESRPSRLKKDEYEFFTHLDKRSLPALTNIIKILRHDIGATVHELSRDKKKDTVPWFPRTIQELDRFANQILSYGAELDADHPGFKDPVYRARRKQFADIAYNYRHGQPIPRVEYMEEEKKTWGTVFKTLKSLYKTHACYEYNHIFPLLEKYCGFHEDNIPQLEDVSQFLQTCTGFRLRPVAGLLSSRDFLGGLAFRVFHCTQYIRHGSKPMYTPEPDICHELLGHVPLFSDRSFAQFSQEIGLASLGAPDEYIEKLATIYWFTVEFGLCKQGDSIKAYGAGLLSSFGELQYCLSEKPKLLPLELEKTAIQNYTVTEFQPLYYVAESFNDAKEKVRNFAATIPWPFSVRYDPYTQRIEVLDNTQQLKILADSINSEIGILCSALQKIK
Experiment: Cell Based Phenylalanine Flux Assay;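 also: after compound treatment, cells received sepiapterin plus isotope-labelled Phenylalanine for 4 hours, then labelled Tyrosine in the medium was quantified, 10-point 2-fold dilution series run in duplicate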
Conditions: A375 cells expressing R408W PAH; 24 hrs with compound, then 20 µM sepiapterin and 800 µM 13C9,15N-Phenylalanine for 4 hours; 13C-Tyrosine by LC-MS; average where tested multiple times; read-out: AC50

Question: For CN(C)Cc1nnc(C(=O)N2CCc3[nH]cnc3C2c2cc3ccccn3n2)o1 (stereo not drawn), which AC50 is on record?
Answer: > 5 µM

Question: For COc1cccn2nc(C3c4nc[nH]c4CCN3C(=O)c3cnn4cc(N5CCOCC5)ccc34)cc12 (stereo not drawn), which AC50 is on record?
Answer: > 5 µM

Question: With O=C(c1ccn(-c2ccccn2)n1)N1CCc2[nH]cnc2C1c1cc2c(F)cccn2n1 (stereo not drawn) as the molecule, how does the AC50 read?
Answer: 1 to 5 µM

Question: Which AC50 does the source give for Cc1ccc2c(C(=O)N3CCc4[nH]cnc4C3c3cc4cccc(C)n4n3)cnn2c1 (stereo not drawn) here?
Answer: 1 to 5 µM

Question: Cc1nc(-c2ccccn2)oc1C(=O)N1CCc2[nH]cnc2[C@H]1c1cc2ccccn2n1 (single isomer, unassigned) was tested. Which AC50 did it give?
Answer: 1 to 5 µM

Question: How did the AC50 turn out when FC(F)c1cccn2nc([C@H]3c4nc[nH]c4CCN3c3nc4ccccc4o3)cc12 (single isomer, unassigned) was run?
Answer: > 5 µM

Question: With CC(C)c1nnc(C(=O)N2CCc3[nH]cnc3[C@@H]2c2cc3cccc(C(F)(F)F)n3n2)o1 (single isomer, unassigned) as the molecule, how does the AC50 read?
Answer: 1 to 5 µM

Question: How did the AC50 turn out when Cc1ncoc1C(=O)N1CC2(CC2)c2[nH]cnc2C1c1cc2ccccn2n1 (stereo not drawn) was run?
Answer: 1 to 5 µM

Question: Which AC50 does the source give for Cc1cccc2cc(C3c4nc[nH]c4CCN3C(=O)c3nnc(-c4cncn4C)o3)nn12 (stereo not drawn) here?
Answer: 1 to 5 µM

Question: Which AC50 does the source give for Cc1cccc2cc(C3c4nc[nH]c4CCN3c3nnc(C4CC4)o3)nn12 (stereo not drawn) here?
Answer: 1 to 5 µM

Same assay, conditions: A375 cells expressing human PAH R408W; 24 hrs compound incubation; 13C-Tyrosine by LC-MS; average where tested multiple times; read-out: AC50

Question: Which AC50 does the source give for Fc1ncccc1-c1nnc(N2CCc3[nH]cnc3[C@H]2c2cc3c(Cl)cccn3n2)o1 [Example 2350, (S)-2-(4-(4-chloropyrazolo[1,5-a]pyridin-2-yl)-1,4,6,7-tetrahydro-5H-imidazo[4,5-c]pyridin-5-yl)-5-(2-fluoropyridin-3-yl)-1,3,4-oxadiazole] here?
Answer: 0.5 to 1 µM

Question: With FC(F)(F)c1ccc(N2CCc3[nH]cnc3[C@H]2c2cc3c(Cl)cccn3n2)nc1 [Example 2095, (S)-4-(4-chloropyrazolo[1,5-a]pyridin-2-yl)-5-(5-(trifluoromethyl)pyridin-2-yl)-4,5,6,7-tetrahydro-1H-imidazo[4,5-c]pyridine] as the molecule, how does the AC50 read?
Answer: < 0.5 µM

Question: For Fc1cccn2nc([C@@H]3c4nc[nH]c4CCN3c3ccccc3)cc12 [Example 2313, (S)-4-(4-fluoropyrazolo[1,5-a]pyridin-2-yl)-5-phenyl-4,5,6,7-tetrahydro-1H-imidazo[4,5-c]pyridine], which AC50 is on record?
Answer: < 0.5 µM

Question: How did the AC50 turn out when Cc1ncccc1-c1nnc(N2CCc3[nH]cnc3[C@@H]2c2cc3cccc(Cl)n3n2)o1 [Example 2331, (R)-2-(4-(7-chloropyrazolo[1,5-a]pyridin-2-yl)-1,4,6,7-tetrahydro-5H-imidazo[4,5-c]pyridin-5-yl)-5-(2-methylpyridin-3-yl)-1,3,4-oxadiazole] was run?
Answer: > 5 µM

Question: For FC(F)(F)c1cccn2nc([C@H]3c4nc[nH]c4CCN3c3nnc(-c4ccncn4)o3)cc12 [Example 2163, (R)-2-(pyrimidin-4-yl)-5-(4-(4-(trifluoromethyl)pyrazolo[1,5-a]pyridin-2-yl)-1,4,6,7-tetrahydro-5H-imidazo[4,5-c]pyridin-5-yl)-1,3,4-oxadiazole], which AC50 is on record?
Answer: > 5 µM

Question: Which AC50 does the source give for O=C([C@H]1CC1(F)F)N1CCc2[nH]cnc2[C@H]1c1cc2c(F)cccn2n1 [Example 2223, ((R)-2,2-difluorocyclopropyl)((S)-4-(4-fluoropyrazolo[1,5-a]pyridin-2-yl)-1,4,6,7-tetrahydro-5H-imidazo[4,5-c]pyridin-5-yl)methanone] here?
Answer: 1 to 5 µM

Question: For Cc1cccn2nc([C@@H]3c4nc[nH]c4CCN3C(=O)c3cnc(C4CC4)o3)cc12 [Example 1918, (S)-(2-cyclopropyloxazol-5-yl)(4-(4-methylpyrazolo[1,5-a]pyridin-2-yl)-1,4,6,7-tetrahydro-5H-imidazo[4,5-c]pyridin-5-yl)methanone], which AC50 is on record?
Answer: 0.5 to 1 µM

Same assay, conditions: A375 cells expressing human R408W PAH; 24 hrs compound incubation; 13C-Tyrosine by LC-MS; average where tested multiple times; read-out: AC50

Question: Which AC50 does the source give for O=C(c1nnc(-c2ccn(C(F)F)n2)o1)N1CCc2[nH]cnc2[C@H]1c1cc2cccc(F)n2n1 [Example 1405, (S)-(5-(1-(difluoromethyl)-1H-pyrazol-3-yl)-1,3,4-oxadiazol-2-yl)(4-(7-fluoropyrazolo[1,5-a]pyridin-2-yl)-6,7-dihydro-1H-imidazo[4,5-c]pyridin-5(4H)-yl)methanone] here?
Answer: < 0.5 µM

Question: For COc1ccc2c(C(=O)N3CCc4[nH]cnc4[C@H]3c3cc4cccc(C)n4n3)cnn2c1 [Example 1718, (S)-(6-methoxypyrazolo[1,5-a]pyridin-3-yl)(4-(7-methylpyrazolo[1,5-a]pyridin-2-yl)-6,7-dihydro-1H-imidazo[4,5-c]pyridin-5(4H)-yl)methanone], which AC50 is on record?
Answer: 0.5 to 1 µM

Question: How did the AC50 turn out when Fc1cccn2nc([C@H]3c4nc[nH]c4CCN3c3ncccn3)cc12 [Example 1617, (R)-4-(4-fluoropyrazolo[1,5-a]pyridin-2-yl)-5-(pyrimidin-2-yl)-4,5,6,7-tetrahydro-1H-imidazo[4,5-c]pyridine] was run?
Answer: > 5 µM

Question: How did the AC50 turn out when Cc1cccc2cc([C@H]3c4nc[nH]c4CCN3C(=O)c3oc(C(C)(C)F)nc3C(F)F)nn12 [Example 1231, (R)-(4-(difluoromethyl)-2-(2-fluoropropan-2-yl)oxazol-5-yl)(4-(7-methylpyrazolo[1,5-a]pyridin-2-yl)-6,7-dihydro-1H-imidazo[4,5-c]pyridin-5(4H)-yl)methanone] was run?
Answer: 1 to 5 µM

Question: With CC(C)c1nnc(C(=O)N2CCc3[nH]cnc3[C@H]2c2cc3c(F)cccn3n2)o1 [Example 1452, (S)-(4-(4-fluoropyrazolo[1,5-a]pyridin-2-yl)-6,7-dihydro-1H-imidazo[4,5-c]pyridin-5(4H)-yl)(5-isopropyl-1,3,4-oxadiazol-2-yl)methanone] as the molecule, how does the AC50 read?
Answer: < 0.5 µM

Question: Which AC50 does the source give for O=C(c1nnc(N2CCC(F)CC2)o1)N1CCc2[nH]cnc2[C@H]1c1cc2c(F)cccn2n1 [Example 1014, (S)-(5-(4-fluoropiperidin-1-yl)-1,3,4-oxadiazol-2-yl)(4-(4-fluoropyrazolo[1,5-a]pyridin-2-yl)-6,7-dihydro-1H-imidazo[4,5-c]pyridin-5(4H)-yl)methanone] here?
Answer: < 0.5 µM

Question: For Cn1nc(C(F)F)nc1C(=O)N1CCc2[nH]cnc2[C@H]1c1cc2c(F)cccn2n1 [Example 764, (S)-(3-(difluoromethyl)-1-methyl-1H-1,2,4-triazol-5-yl)(4-(4-fluoropyrazolo[1,5-a]pyridin-2-yl)-6,7-dihydro-1H-imidazo[4,5-c]pyridin-5(4H)-yl)methanone], which AC50 is on record?
Answer: 0.5 to 1 µM

Question: Which AC50 does the source give for Cc1c(-c2nnc(C(=O)N3CCc4[nH]cnc4[C@H]3c3cc4c(OC(F)F)cccn4n3)o2)cnn1C [Example 1658, (S)-(4-(4-(difluoromethoxy)pyrazolo[1,5-a]pyridin-2-yl)-6,7-dihydro-1H-imidazo[4,5-c]pyridin-5(4H)-yl)(5-(1,5-dimethyl-1H-pyrazol-4-yl)-1,3,4-oxadiazol-2-yl)methanone] here?
Answer: 0.5 to 1 µM

Question: For Cn1nc(C2CC2)nc1C(=O)N1CCc2[nH]cnc2[C@H]1c1cc2c(C(F)(F)F)cccn2n1 [Example 1081, (S)-(3-cyclopropyl-1-methyl-1H-1,2,4-triazol-5-yl)(4-(4-(trifluoromethyl)pyrazolo[1,5-a]pyridin-2-yl)-6,7-dihydro-1H-imidazo[4,5-c]pyridin-5(4H)-yl)methanone], which AC50 is on record?
Answer: < 0.5 µM

Question: How did the AC50 turn out when CC(C)(O)c1nc(Cl)c(C(=O)N2CCc3[nH]cnc3[C@@H]2c2cc3c(Cl)cccn3n2)o1 [Example 721, (R)-(4-chloro-2-(2-hydroxypropan-2-yl)oxazol-5-yl)(4-(4-chloropyrazolo[1,5-a]pyridin-2-yl)-6,7-dihydro-1H-imidazo[4,5-c]pyridin-5(4H)-yl)methanone] was run?
Answer: > 5 µM

Question: FC(F)c1cccn2nc([C@H]3c4nc[nH]c4CCN3c3ncccn3)cc12 [Example 1763, (R)-4-(4-(difluoromethyl)pyrazolo[1,5-a]pyridin-2-yl)-5-(pyrimidin-2-yl)-4,5,6,7-tetrahydro-1H-imidazo[4,5-c]pyridine] was tested. Which AC50 did it give?
Answer: 1 to 5 µM

Question: For Cc1ccc2c(C(=O)N3CCc4[nH]cnc4[C@@H]3c3cc4c(C)cccn4n3)cnn2c1 [Example 1669, (R)-(4-(4-methylpyrazolo[1,5-a]pyridin-2-yl)-6,7-dihydro-1H-imidazo[4,5-c]pyridin-5(4H)-yl)(6-methylpyrazolo[1,5-a]pyridin-3-yl)methanone], which AC50 is on record?
Answer: > 5 µM

Question: With Cn1cncc1-c1nc(C(F)F)c(C(=O)N2CCc3[nH]cnc3[C@H]2c2cc3ccccn3n2)o1 [Example 869, (S)-(4-(difluoromethyl)-2-(1-methyl-1H-imidazol-5-yl)oxazol-5-yl)(4-(pyrazolo[1,5-a]pyridin-2-yl)-6,7-dihydro-1H-imidazo[4,5-c]pyridin-5(4H)-yl)methanone] as the molecule, how does the AC50 read?
Answer: 0.5 to 1 µM

Question: Which AC50 does the source give for O=C(c1nnc(-c2cnn(C(F)F)c2)o1)N1CCc2[nH]cnc2[C@H]1c1cc2c(Cl)cccn2n1 [Example 1134, (S)-(4-(4-chloropyrazolo[1,5-a]pyridin-2-yl)-6,7-dihydro-1H-imidazo[4,5-c]pyridin-5(4H)-yl)(5-(1-(difluoromethyl)-1H-pyrazol-4-yl)-1,3,4-oxadiazol-2-yl)methanone] here?
Answer: < 0.5 µM

Question: How did the AC50 turn out when Cc1nnc(C(=O)N2CCc3[nH]cnc3[C@@H]2c2cc3c(C(F)(F)F)cccn3n2)o1 [Example 945, (R)-(5-methyl-1,3,4-oxadiazol-2-yl)(4-(4-(trifluoromethyl)pyrazolo[1,5-a]pyridin-2-yl)-6,7-dihydro-1H-imidazo[4,5-c]pyridin-5(4H)-yl)methanone] was run?
Answer: > 5 µM

Question: O=C(c1cnn2cc(C3CC3)ccc12)N1CCc2[nH]cnc2[C@@H]1c1cc2cccc(Cl)n2n1 [Example 1745, (R)-(4-(7-chloropyrazolo[1,5-a]pyridin-2-yl)-6,7-dihydro-1H-imidazo[4,5-c]pyridin-5(4H)-yl)(6-cyclopropylpyrazolo[1,5-a]pyridin-3-yl)methanone] was tested. Which AC50 did it give?
Answer: > 5 µM
